# From US11197859B2 (AUTIFONY THERAPEUTICS LIMITED, priority 2010, dated 2021)
# Molecular target: T1, human Kv3.2 channels (hKv3.2) (Homo sapiens, UniProt Q96PR1)
# T1 construct: expressed in transfected cells
# T1 sequence (Q96PR1 1-638): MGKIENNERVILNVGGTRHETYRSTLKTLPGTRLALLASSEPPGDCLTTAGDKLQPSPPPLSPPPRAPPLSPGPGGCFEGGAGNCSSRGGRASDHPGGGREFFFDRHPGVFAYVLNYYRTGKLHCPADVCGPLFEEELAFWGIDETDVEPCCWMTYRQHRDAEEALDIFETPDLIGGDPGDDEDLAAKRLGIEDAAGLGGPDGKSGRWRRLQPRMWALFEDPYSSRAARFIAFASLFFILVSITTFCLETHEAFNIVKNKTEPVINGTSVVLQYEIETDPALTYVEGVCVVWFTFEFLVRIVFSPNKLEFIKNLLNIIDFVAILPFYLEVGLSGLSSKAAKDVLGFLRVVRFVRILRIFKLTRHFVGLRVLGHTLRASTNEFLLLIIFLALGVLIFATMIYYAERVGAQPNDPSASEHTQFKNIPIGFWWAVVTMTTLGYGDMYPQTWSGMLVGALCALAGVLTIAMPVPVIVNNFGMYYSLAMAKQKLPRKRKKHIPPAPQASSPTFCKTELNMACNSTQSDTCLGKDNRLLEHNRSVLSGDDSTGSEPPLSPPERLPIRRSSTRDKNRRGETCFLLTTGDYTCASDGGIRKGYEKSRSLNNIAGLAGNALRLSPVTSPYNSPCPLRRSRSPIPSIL
# Assay: IonWorks Quattro electrophysiology, hKv3.2 currents, activation time constant (Tauact)
# Type: cell-based
# Settings: hKv3.2, -15 mV pulse; compound 6.25 μM (concentration giving ~0.3 nA current)
# Method: The ability of the compounds of the disclosure to modulate the voltage-gated potassium channel subtypes Kv3.2/3.1 may be determined using the following assay.
# To assess compound effects on human Kv3.2 channels (hKv3.2), a stable cell line expressing hKv3.2 was created by transfecting Chinese Hamster Ovary (CHO)-K1 cells with a pCIH5-hKv3.2 vector. Cells were cultured in DMEM/F12 medium supplemented by 10% Foetal Bovine Serum, 1× non-essential amino acids (Invitrogen) and 500 ug/ml of Hygromycin-B (Invitrogen). Cells were grown and maintained at 37° C. in a humidified environment containing 5% CO2 in air.
# The day of the experiment, cells were removed from the incubator and the culture medium removed. Cells were washed with 5 ml of Dulbecco's PBS (DPBS) calcium and magnesium free and detached by the addition of 3 ml Versene (Invitrogen, Italy) followed by a brief incubation at 37° C. for 5 minutes. The flask was tapped to dislodge cells and 10 ml of DPBS containing calcium and magnesium was added to prepare a cell suspension. The cell suspension was then placed into a 15 ml centrifuge tube and centrifuged for 2 min at 1200 rpm. After centrifugation, the supernatant was removed and the cell pellet re-suspended in 4 ml of DPBS containing calcium and magnesium using a 5 ml pipette to break up the pellet. Cell suspension volume was then corrected to give a cell concentration for the assay of approximately 3 million cells per ml.
# Experiments were conducted at room temperature using IonWorks Quattro™ planar array electrophysiology technology (Molecular Devices Corp.) with PatchPlate™ PPC. Stimulation protocols and data acquisition were carried out using a microcomputer (Dell Pentium 4). Planar electrode hole resistances(Rp) were determined by applying a 10 mV voltage step across each well. These measurements were performed before cell addition. […] Following this, amphotericin-B solution was added to the intracellular face of the electrode to achieve intracellular access. Cells were held at −70 mV. Leak subtraction was conducted in all experiments by applying 50 ms hyperpolarizing (10 mV) prepulses to evoke leak currents followed by a 20 ms period at the holding potential before test pulses. From the holding potential of −70 mV, a first test pulse to −15 mV was applied for 100 ms and following a further 100 ms at −70 mV, a second pulse to 40 mV was applied for 50 ms. Cells were then maintained for a further 100 ms at −100 mV and then a voltage ramp from −100 mV to 40 mV was applied over 200 ms. In all experiments, the test pulses protocol was performed in the absence (pre-read) and presence (post-read) of the test compound. Pre- and post-reads were separated by the compound addition followed by a 3 minute incubation.
# The intracellular solution contained the following (in mM): K-gluconate 100, KCl 54, MgCl2 3.2, HEPES 5, adjusted to pH 7.3 with KOH. Amphotericin-B solution was prepared as 50 mg/ml stock solution in DMSO and diluted to a final working concentration of 0.1 mg/ml in intracellular solution.
# The final assay dilution was 200 and the final compound concentrations were in the range 50 μM to 50 nM.
# The recordings were analysed and filtered using both seal resistance (>20 MΩ) and peak current amplitude (>500 pA at the voltage step of 40 mV) in the absence of compound to eliminate unsuitable cells from further analysis. Kv3 channel-mediated outward currents were measured determined from the mean amplitude of the current over the final 10 ms of the −15 mV voltage pulse minus the mean baseline current at −70 mV over a 10 ms period just prior to the −15 mV step. This Kv3 channel currents following addition of the test compound were then compared with the currents recorded prior to compound addition. […] The normalised data were analysed using ActivityBase or Excel software.
smiles,measurement,value
"CC[C@H]1NC(=O)N(c2ccc(Oc3ccc(C)c(OC)c3)nc2)C1=O [RE1, (5R)-5-ethyl-3-(6-{[4-methyl-3-(methyloxy)phenyl]oxy}-3-pyridinyl)-2,4-imidazolidinedione]",Tauact mean,9.9 ms
